Measurements: PubChem BioAssay AID328 (DTP/NCI, 2004)
“And” between values parts separate entries of the source, which are not always exact repeats. Identical values can stand only once. Inconclusive results and toxic doses are left out.

System: BDF1 mice, P388 leukemia ip, median survival T/C
Experiment: NCI In Vivo Anticancer Drug Screen. Data for tumor model P388 Leukemia (intraperitoneal) in B6D2F1 (BDF1) mice
Settings: endpoint: median survival time, higher = longer survival
How it was run: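 Survival ratio, drug arm over vehicle arm, in mice with a transplanted tumour.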

[1] = dose: 50.0 mg/kg/injection, schedule: Q01DX009 (ip), vehicle: saline with Tween-80
[2] = dose: 100.0 mg/kg/injection, schedule: Q01DX009 (ip), vehicle: saline with Tween-80
[3] = dose: 25.0 mg/kg/injection, schedule: Q01DX009 (ip), vehicle: saline with Tween-80
[4] = dose: 200.0 mg/kg/injection, schedule: Q01DX009 (ip), vehicle: saline with Tween-80

SMILES: O=C(NC1CCC1C(=O)O)OCc1ccccc1 (centres undefined)
- T/C (dose: 100.0 mg/kg/injection, schedule: Q04DX002 (ip), vehicle: saline with Tween-80): 101 % of control
- T/C (dose: 200.0 mg/kg/injection, schedule: Q04DX002 (ip), vehicle: saline with Tween-80): 104 % of control
- T/C (dose: 400.0 mg/kg/injection, schedule: Q04DX002 (ip), vehicle: saline with Tween-80): 110 % of control

SMILES: Cc1ccc(-c2nc3ccccc3c(=O)n2/N=C/c2ccccc2)cc1
- T/C [1]: 90 % of control
- T/C [2]: 93 % of control

SMILES: CC(C)CN(CC(C)C)C(=O)c1ccc(Cl)c(Cl)c1
- T/C [3]: 91 % of control
- T/C [1]: 103 % of control
- T/C [2]: 107 % of control
- T/C [4]: 94 % of control

SMILES: Clc1ccc(-c2ncnc3c2Cc2ccccc2-3)cc1
- T/C [2]: 112 % of control
- T/C [4]: 116 % of control
- T/C (dose: 400.0 mg/kg/injection, schedule: Q01DX009 (ip), vehicle: saline with Tween-80): 100 % of control

SMILES: O=C(NC(=O)c1c(F)cccc1F)Nc1nc(-c2ccccc2)cs1
- T/C [3]: 93 % of control
- T/C [1]: 100 % of control
- T/C [2]: 90 % of control

SMILES: OCC1OC(n2cnc3c(NO)ncnc32)C(O)C1O (centres undefined)
- T/C (dose: 12.5 mg/kg/injection, schedule: Q01DX009 (ip), vehicle: Klucel (hydroxypropylcellulose) (HPC)): 108 % of control
- T/C (dose: 100.0 mg/kg/injection, schedule: Q01DX009 (ip), vehicle: Klucel (hydroxypropylcellulose) (HPC)): 108 % of control

SMILES: CC(C)NC(=O)OCc1c(COC(=O)NC(C)C)c(-c2ccc(Cl)c(Cl)c2)n2c1CCC2
- T/C (dose: 12.5 mg/kg/injection, schedule: Q01DX009 (ip), vehicle: other): 204 % of control
- T/C (dose: 25.0 mg/kg/injection, schedule: Q01DX009 (ip), vehicle: other): 214 % of control

SMILES: COc1cc2oc(=O)c3c(c2cc1OC)CCN(CCN1CCCCC1)C3
- T/C (dose: 50.0 mg/kg/injection, schedule: Q04DX002 (ip), vehicle: saline): 101 % of control
- T/C (dose: 100.0 mg/kg/injection, schedule: Q04DX002 (ip), vehicle: saline): 100 % of control
- T/C (dose: 200.0 mg/kg/injection, schedule: Q04DX002 (ip), vehicle: saline): 108 % of control

SMILES: O=C(Cl)C1=C(c2ccccc2)C1c1ccccc1 (centres undefined)
- T/C [1]: 102 % of control
- T/C [2]: 101 % of control

SMILES: CCOC(=O)CNC(=O)C(CSSCC(NC(=O)OCc1ccccc1)C(=O)NCC(=O)OCC)NC(=O)OCc1ccccc1 (centres undefined)
- T/C (dose: 100.0 mg/kg/injection, schedule: Q04DX003 (ip), vehicle: Klucel (hydroxypropylcellulose) (HPC)): 118 % of control
- T/C (dose: 200.0 mg/kg/injection, schedule: Q04DX003 (ip), vehicle: Klucel (hydroxypropylcellulose) (HPC)): 86 % of control
- T/C (dose: 400.0 mg/kg/injection, schedule: Q04DX003 (ip), vehicle: Klucel (hydroxypropylcellulose) (HPC)): 109 % of control

SMILES: Cc1ccc(-n2c(O)c(C=N)c(=O)[nH]c2=O)cc1
- T/C [1]: 86 % of control
- T/C [2]: 86 % of control
- T/C [4]: 113 % of control

SMILES: Nc1nc(=O)[nH]c(N)c1N=O
- T/C (dose: 25.0 mg/kg/injection, schedule: Q04DX003 (ip), vehicle: saline with Tween-80): 98 % of control
- T/C (dose: 50.0 mg/kg/injection, schedule: Q04DX003 (ip), vehicle: saline with Tween-80): 107 % of control
- T/C (dose: 100.0 mg/kg/injection, schedule: Q04DX003 (ip), vehicle: saline with Tween-80): 100 % of control
- T/C (dose: 200.0 mg/kg/injection, schedule: Q04DX003 (ip), vehicle: saline with Tween-80): 100 % of control
- T/C (dose: 400.0 mg/kg/injection, schedule: Q04DX003 (ip), vehicle: saline with Tween-80): 102 % of control

SMILES: CN1C(=O)C(Br)=C(c2cccs2)C1=O
- T/C (dose: 25.0 mg/kg/injection, schedule: Q01DX001 (ip), vehicle: saline with Tween-80): 109 % of control
- T/C (dose: 50.0 mg/kg/injection, schedule: Q01DX001 (ip), vehicle: saline with Tween-80): 103 % of control

SMILES: Clc1ccc(-c2cc[s+]s2)cc1
- T/C (dose: 3.12 mg/kg/injection, schedule: Q01DX009 (ip), vehicle: water): 94 % of control
- T/C (dose: 3.12 mg/kg/injection, schedule: Q04DX003 (ip), vehicle: water): 111 % of control
- T/C (dose: 6.25 mg/kg/injection, schedule: Q01DX009 (ip), vehicle: water): 110 % of control
- T/C (dose: 6.25 mg/kg/injection, schedule: Q04DX003 (ip), vehicle: water): 100 % of control
- T/C (dose: 12.5 mg/kg/injection, schedule: Q01DX009 (ip), vehicle: water): 119 % of control
- T/C (dose: 12.5 mg/kg/injection, schedule: Q04DX003 (ip), vehicle: water): 97 % of control
- T/C (dose: 25.0 mg/kg/injection, schedule: Q01DX009 (ip), vehicle: water): 119 % of control
- T/C (dose: 25.0 mg/kg/injection, schedule: Q04DX003 (ip), vehicle: water): 96 % of control and 117 % of control
- T/C (dose: 50.0 mg/kg/injection, schedule: Q01DX009 (ip), vehicle: water): 108 % of control
- T/C (dose: 50.0 mg/kg/injection, schedule: Q04DX003 (ip), vehicle: water): 90 % of control and 100 % of control
- T/C (dose: 100.0 mg/kg/injection, schedule: Q04DX003 (ip), vehicle: water): 98 % of control

SMILES: CCCCCCCCCCCCCCCCCC(=O)[O][Sn]([CH2]CCC)([CH2]CCC)[O]C(=O)CCCCCCCCCCCCCCCCC
- T/C (dose: 12.5 mg/kg/injection, schedule: Q04DX003 (ip), vehicle: other): 121 % of control
